{
  "source": "patent US20110039763A1",
  "about": "“TARGETED ANTIMICROBIAL MOIETIES” (C3 JIAN, INC., priority 2009, published 2011)",
  "note": "“Also recorded” adds a separate entry of the source.",
  "data": [
    {"tested_on": "microorganisms", "assay": "Targeting peptide binding to target microorganisms (Tables 3, 10, 12)", "details": "microorganism(s) the targeting peptide binds; binding in aqueous buffers that varied with peptide solubility, preferably 1x PBS", "source_text": "(§1) In certain embodiments, the targeting moiety comprises one or more targeting peptides that bind particular bacteria, fungi, and/or yeasts, and/or algae, and/or viruses and/or that bind particular groups of bacteria, and/or groups of fungi, and/or groups of yeasts, and/or groups of algae.\n(§2) In certain embodiments the targeting peptides include peptides comprising or consisting of one or more of the amino acid sequences shown in Table 3 (SEQ ID NOs:13-1566). In various embodiments the peptides include peptides comprising or consisting of the retro, inverso, retro-inverso, and/or beta form of one or more of the amino acid sequences shown in Table 3. Also contemplated are circular permutations of these sequences as well as peptides comprising or consisting of the retro, inverso, retro-inverso, and/or beta form of such circular permutations.\n(§3) In certain embodiments the targeting peptide can comprise one or more domains capable of binding, specifically binding, or preferentially binding to a microorganism, e.g., a target microbial organism (see, e.g., Table 3). In certain embodiment, the targeting peptide be identified via screening peptide libraries. For example, a phage display peptide library can be screened against a target microbial organism or a desired antigen or epitope thereof. Any peptide identified through such screening can be used as a targeting peptide for the target microbial organism.", "values": [
      {"substance": "1T-266 (RAGTWLVVDEIR; Peptide with targeting and/or antimicrobial activity)", "Target(s)": "S. sanguinis"},
      {"substance": "PF-038 (MAYKDEGKETKFAVKGYKD; Peptide with targeting and/or antimicrobial activity)", "Target(s)": "M. luteus"},
      {"substance": "1T-256 (KGKSLMPLLKQINQWGKLYL; Peptide with targeting and/or antimicrobial activity)", "Target(s)": "S. sanguinis"},
      {"substance": "1T-289 (EPSADIYLSAKDTKT; Peptide with targeting and/or antimicrobial activity)", "Target(s)": "F. nucleatum; also recorded: P. gingivalis; also recorded: S. gordonii; also recorded: S. mitis; also recorded: S. mutans; also recorded: S. oralis; also recorded: S. sanguinis"},
      {"substance": "TT-308 (GLVIIPNLIALIILFSQVRQQTKDYFSNPKLSSR; Peptide with targeting and/or antimicrobial activity)", "Target(s)": "F. nucleatum"},
      {"substance": "PF-014 (HPTDNKHN; Peptide with targeting and/or antimicrobial activity)", "Target(s)": "E. coli; also recorded: C. jeikeium"},
      {"substance": "PF-060 (HSSHL; Peptide with targeting and/or antimicrobial activity)", "Target(s)": "E. coli; also recorded: C. albicans; also recorded: C. jeikeium"},
      {"substance": "TT-307 (NGDKKAKEELDKWDEVIKELNIQF; Peptide with targeting and/or antimicrobial activity)", "Target(s)": "F. nucleatum"},
      {"substance": "1T-242 (KQVQNTTLIICGTVLLGILFKSYLKSQKSV; Peptide with targeting and/or antimicrobial activity)", "Target(s)": "F. nucleatum; also recorded: S. sanguinis"},
      {"substance": "1T-199 (RAGRIKKLSQKEAEPFEN; Peptide with targeting and/or antimicrobial activity)", "Target(s)": "S. sanguinis"}
    ]},
    {"tested_on": "microorganisms", "assay": "Targeting peptide binding to target microorganisms (Tables 3, 10, 12)", "details": "microorganism(s) the targeting peptide binds; binding in aqueous buffers varied with peptide solubility, preferably 1x PBS", "source_text": "as §1, §2, §3", "values": [
      {"substance": "PF-300 (VKDVLLELFNKIIGA; Peptide with targeting and/or antimicrobial activity)", "Target(s)": "B. subtilis; also recorded: C. difficile"},
      {"substance": "PF-509 (EAKVQAKGEQIACNNY; Peptide with targeting and/or antimicrobial activity)", "Target(s)": "S. mutans; also recorded: B. subtilis; also recorded: E. coli"},
      {"substance": "PF-193 (PPHCPPGHAKKGWC; Peptide with targeting and/or antimicrobial activity)", "Target(s)": "S. epidermidis and M. luteus and E. coli and MRSA and E. faecalis and C. jejuni"},
      {"substance": "PF-197 (CNALLRRGHPPSAL; Peptide with targeting and/or antimicrobial activity)", "Target(s)": "S. epidermidis; also recorded: M. luteus; also recorded: C. albicans; also recorded: E. faecalis; also recorded: C. jejuni"},
      {"substance": "PF-C134 (NELMKYPATLTATATTPGIKYSHLCSVCL; Peptide with targeting and/or antimicrobial activity)", "Target(s)": "A. naeslundii; also recorded: F. nucleatum; also recorded: P. gingivalis; also recorded: S. mutans; also recorded: T. denticola"},
      {"substance": "PF-231 (AVRDFKKSVREEDEAASLNSPRTIDAQVKTSESTSVKS; Peptide with targeting and/or antimicrobial activity)", "Target(s)": "S. mutans"},
      {"substance": "PF-254 (FIYGVGFVPHFWLWKWLFSPWIAWPLMLLGYYIWFLT; Peptide with targeting and/or antimicrobial activity)", "Target(s)": "S. epidermidis; also recorded: M. luteus; also recorded: P. aeruginosa; also recorded: A. baumannii"},
      {"substance": "PF-239 (PKHNVVTGVSVDLDYKP; Peptide with targeting and/or antimicrobial activity)", "Target(s)": "S. mutans; also recorded: E. coli"},
      {"substance": "PF-502 (NKGKQMQDQTGKQPIVDNG; Peptide with targeting and/or antimicrobial activity)", "Target(s)": "S. mutans"},
      {"substance": "PF-268 (EVLLSDLRPDIFSET; Peptide with targeting and/or antimicrobial activity)", "Target(s)": "S. mutans"},
      {"substance": "PF-340 (VKDVLLELFNKIIGA; Peptide with targeting and/or antimicrobial activity)", "Target(s)": "S. mutans; also recorded: E. coli"},
      {"substance": "PF-789 (PRGAQSGHG; Peptide with targeting and/or antimicrobial activity)", "Target(s)": "Mycobacteria spp."},
      {"substance": "PF-245 (MNDVKPVVQPKQTLKAFLVQLLSVRAGVYIKQNNQLPKTKG; Peptide with targeting and/or antimicrobial activity)", "Target(s)": "S. epidermidis; also recorded: M. luteus; also recorded: P. aeruginosa; also recorded: A. baumannii"},
      {"substance": "PF-703 (MTTVDNIVGLVIAVALMAFLFAALLFPEKF; Peptide with targeting and/or antimicrobial activity)", "Target(s)": "Mycobacteria spp"},
      {"substance": "PF-786 (LSERERRRLKRGII; Peptide with targeting and/or antimicrobial activity)", "Target(s)": "Mycobacteria spp."},
      {"substance": "PF-150 (EIQAKGTG; Peptide with targeting and/or antimicrobial activity)", "Target(s)": "S. epidermidis and MRSA"},
      {"substance": "PF-275 (LVSGVANTVKNTAHTVGNTAKHAGHVAADTTVKATKKQQVK; Peptide with targeting and/or antimicrobial activity)", "Target(s)": "S. mutans"},
      {"substance": "PF-201 (GCRPASLSDADPDGR; Peptide with targeting and/or antimicrobial activity)", "Target(s)": "S. epidermidis; also recorded: M. luteus; also recorded: E. coli; also recorded: C. albicans; also recorded: E. faecalis; also recorded: C. jeikeium; also recorded: C. jejuni"},
      {"substance": "PF-181 (GIAPRRNEWGAVGGR; Peptide with targeting and/or antimicrobial activity)", "Target(s)": "S. epidermidis and M. luteus and E. coli and MRSA and E. faecalis and C. jeikeium"},
      {"substance": "PF-S015 (IENLERGARRPP; Peptide with targeting and/or antimicrobial activity)", "Target(s)": "S. epidermidis and MRSA and C. jeikeium"},
      {"substance": "PF-409 (DLVQSILSEFKKSG; Peptide with targeting and/or antimicrobial activity)", "Target(s)": "S. epidermidis and MRSA and C. jeikeium and C. jejuni"},
      {"substance": "PF-C050 (QGLARPVLRRIPL; Peptide with targeting and/or antimicrobial activity)", "Target(s)": "A. naeslundii; also recorded: S. mutans"},
      {"substance": "PF-314 (ECLKKAIKSKALNKAFKIDVPDEVYDNLLMELEEYEK; Peptide with targeting and/or antimicrobial activity)", "Target(s)": "S. mutans"}
    ]},
    {"tested_on": "microorganisms", "assay": "Targeting peptide binding to target microorganisms (Tables 3, 10, 12)", "details": "peptide binding in aqueous buffers that varied with peptide solubility; preferably 1x PBS", "source_text": "as §1, §2, §3", "values": [
      {"substance": "1T-78 (FFKTIFVLILGALGVAAGLYIEKNYIDK; Peptide with targeting and/or antimicrobial activity)", "Target(s) (microorganism bound by the targeting peptide)": "S. pneumoniae"},
      {"substance": "1T-30 (GKAKPYQVRQVLRAVDKLETRRKKGGR; Peptide with targeting and/or antimicrobial activity)", "Target(s) (microorganism bound by the targeting peptide)": "S. aureus; also recorded: S. epidermidis; also recorded: C. xerosis; also recorded: C. striatum; also recorded: P. aeruginosa"},
      {"substance": "1T-79 (FGTPWSITNFWKKNFNDRPDFDSDRRRY; Peptide with targeting and/or antimicrobial activity)", "Target(s) (microorganism bound by the targeting peptide)": "S. pneumoniae"},
      {"substance": "1T-87 (EAVGQDLVDAHHP; Peptide with targeting and/or antimicrobial activity)", "Target(s) (microorganism bound by the targeting peptide)": "S. mitis; also recorded: S. mutans; also recorded: S. oralis"},
      {"substance": "1T-90 (RNVIGQVL; Peptide with targeting and/or antimicrobial activity)", "Target(s) (microorganism bound by the targeting peptide)": "S. gordonii; also recorded: S. mitis; also recorded: S. mutans; also recorded: S. oralis; also recorded: S. sanguinis"},
      {"substance": "1T-48 (KLQVHHGRATHTLLLQPPLCAPGTIR; Peptide with targeting and/or antimicrobial activity)", "Target(s) (microorganism bound by the targeting peptide)": "S. aureus; also recorded: S. epidermidis; also recorded: C. jeikeium; also recorded: C. xerosis; also recorded: C. striatum; also recorded: P. aeruginosa"},
      {"substance": "1T-7 (SQRIIEPVKSPQPYPGFSVS; Peptide with targeting and/or antimicrobial activity)", "Target(s) (microorganism bound by the targeting peptide)": "M. xanthus"},
      {"substance": "1T-68 (GGTKEIVYQRG; Peptide with targeting and/or antimicrobial activity)", "Target(s) (microorganism bound by the targeting peptide)": "S. mutans; also recorded: S. aureus; also recorded: C. jeikeium; also recorded: C. xerosis; also recorded: C. striatum; also recorded: P. aeruginosa"},
      {"substance": "1T-76 (EMRLSKFFRDFILWRKK; Peptide with targeting and/or antimicrobial activity)", "Target(s) (microorganism bound by the targeting peptide)": "S. pneumoniae"},
      {"substance": "1T-31 (NATGTDIGEVTLTLGRFS; Peptide with targeting and/or antimicrobial activity)", "Target(s) (microorganism bound by the targeting peptide)": "S. mutans; also recorded: P. aeruginosa"},
      {"substance": "1T-82 (FGVGVGIALFMAGYAIGKDLRKKFGKSC; Peptide with targeting and/or antimicrobial activity)", "Target(s) (microorganism bound by the targeting peptide)": "S. pneumoniae"},
      {"substance": "1T-63 (EPLILKELVRNLFLFCYARALR; Peptide with targeting and/or antimicrobial activity)", "Target(s) (microorganism bound by the targeting peptide)": "S. aureus; also recorded: S. epidermidis; also recorded: C. jeikeium; also recorded: C. xerosis; also recorded: C. striatum; also recorded: P. aeruginosa"},
      {"substance": "1T-75 (GVARGLQLGIKTRTQWGAATGAA; Peptide with targeting and/or antimicrobial activity)", "Target(s) (microorganism bound by the targeting peptide)": "S. pneumoniae"}
    ]}
  ]
}
